Results: the NIST ThermoML archive (doi:10.1021/je5007696)
“And” between values parts separate entries of the source, which are not always exact repeats. Equal entries are not always repeated.

Key:
[1] = xn = mol fraction of the nth substance listed; settings: 100 kPa, Liquid, x2 = 0; for viscosity: Concentric cylinders viscometry; for mass density: Vibrating tube method
[2] = refractive index (Na D-line) (dimensionless); settings: 101.33 kPa, Liquid, Standard Abbe refractometry
[3] = Liquid; for viscosity: Concentric cylinders viscometry; for mass density: Vibrating tube method
[4] = refractive index (Na D-line) (dimensionless); xn = mol fraction of the nth substance listed; settings: 100 kPa, Liquid, Standard Abbe refractometry, x2 = 0

CCC(C)=O [butanone] + COC(=O)CCCCC(=O)OC
[1]
Settings | viscosity [mPa·s]
288.15 K | 0.4306
293.15 K | 0.4136
298.15 K | 0.3962
303.15 K | 0.3793
308.15 K | 0.3626
313.15 K | 0.3461
318.15 K | 0.3303
323.15 K | 0.3167

CCC(C)=O [butanone]
[2]
Settings | refractive index
288.15 K | 1.38153
293.15 K | 1.37892
298.15 K | 1.37631
303.15 K | 1.37366
308.15 K | 1.37102
313.15 K | 1.36834
318.15 K | 1.36565
323.15 K | 1.36294

[3], 100 kPa
Settings | mass density [kg/m3] | viscosity
288.15 K | 810.133 | 0.4306 mPa·s and 0.4306 mPa·s
293.15 K | 804.926 | 0.4136 mPa·s and 0.4136 mPa·s
298.15 K | 799.695 | 0.3962 mPa·s and 0.3962 mPa·s
303.15 K | 794.435 | 0.3793 mPa·s and 0.3793 mPa·s
308.15 K | 789.142 | 0.3626 mPa·s and 0.3626 mPa·s
313.15 K | 783.814 | 0.3461 mPa·s and 0.3461 mPa·s
318.15 K | 778.451 | 0.3303 mPa·s and 0.3303 mPa·s
323.15 K | 773.047 | 0.3168 mPa·s and 0.3167 mPa·s

COC(=O)CCCCC(=O)OC [dimethyl 1,6-hexanedioate]
Settings | refractive index
[2], 298.15 K | 1.4264

[3]
Settings | mass density, 293.15 K [kg/m3] | viscosity, 288.15 K [mPa·s] | viscosity, 293.15 K [mPa·s] | viscosity, 298.15 K [mPa·s] | viscosity, 303.15 K [mPa·s] | viscosity, 308.15 K [mPa·s] | viscosity, 313.15 K [mPa·s] | viscosity, 318.15 K [mPa·s] | viscosity, 323.15 K [mPa·s]
100 kPa | – | 3.751 | 3.289 | 2.91 | 2.604 | 2.342 | 2.121 | 1.933 | 1.79
101.33 kPa | 1061.93 | – | – | – | – | – | – | – | –

CCCCO [butan-1-ol]
[2]
Settings | refractive index
288.15 K | 1.40135
293.15 K | 1.39932
298.15 K | 1.3973
303.15 K | 1.39523
308.15 K | 1.39318
313.15 K | 1.3911
318.15 K | 1.38901
323.15 K | 1.38688

[3], 100 kPa
Settings | mass density [kg/m3] | viscosity [mPa·s]
288.15 K | 813.373 | 3.375
293.15 K | 809.573 | 2.945
298.15 K | 805.762 | 2.581
303.15 K | 801.923 | 2.272
308.15 K | 798.053 | 2.008
313.15 K | 794.147 | 1.782
318.15 K | 790.231 | 1.587
323.15 K | 786.238 | 1.419

CCCCO [butan-1-ol] + CCC(C)=O
Settings | mass density, [1] [kg/m3] | refractive index, [4] | viscosity, [1] [mPa·s]
288.15 K | 813.373 | 1.40135 | 3.375
293.15 K | 809.573 | 1.39932 | 2.945
298.15 K | 805.762 | 1.3973 | 2.581
303.15 K | 801.923 | 1.39523 | 2.272
308.15 K | 798.053 | 1.39318 | 2.008
313.15 K | 794.147 | 1.3911 | 1.782
318.15 K | 790.231 | 1.38901 | 1.587
323.15 K | 786.238 | 1.38688 | 1.419
